Source: patent US6248712A, “Urokinase-type plasminogen activator receptor” (Cancerforskningsfondet af 1989, priority 1995, dated 2001)

What was measured:
U937 cells = assay: Fate of receptor-bound u-PA:PAI-1 complex on U937 cells; type: cell-based, human; details: 0.5 mM chloroquine
Description: Binding assay. […] The cells were then acid-treated in 50 mM glycine-HCl, 100 mM NaCl (pH 3) for 3 minutes at 4° C. and quickly neutralized with half a volume of 0.5 M Hepes, 100 mM NaCl (pH 7.4). […] Non-specific binding was determined in the presence of 100 nM unlabelled u-PA.
The basic experiment was carried out in two steps: first, labelled ligands were incubated with acid-washed cells at 4° C. for 90 minutes (step 1). […] In step 2, the cells were incubated at 37° C. for 3 hours in binding buffer containing no ligands. The amount and the state of the ligand were assayed by quantitation of the radioactivity (and the extent of TCA precipitability) at different times during step 2. To this end, both the radioactivity recovered in the cell-associated form and in the supernatant were measured.

HT-1080 cells [1] = assay: Plasmin binding to and release from HT-1080 cells; type: cell-based, human
Description: Plasmin release from HT-1080 cells into serum-free and serum-containing media. Confluent layers of HT-1080 cells were first loaded with plasmin by incubation for 1 hour at 37° C. in serum-free MEM medium (0.5 ml) containing human plasmin (0-5 μg/ml). After rinsing the cell layers three times, they were incubated for 2 hours at 37° C. with either serum-free medium (.smallcircle.--.smallcircle.), medium containing 10% heat-inactivated and plasminogen-depleted fetal calf serum (.circle-solid.--.circle-solid.), or the latter with tranexamic acid (100 μM) (.box-solid.--.box-solid.). Plasmin was then assayed in the cell-bound fraction (A) and the media (B).
In the Examples concerning plasmin binding to cells from medium, human plasmin (approximately 18 CU/mg; Kabi Diagnostica, Stockholm, Sweden) was added to the cultures at final concentrations of 0-5 μg/ml. The cells were incubated for 3 hours at 37° C. before assay of cell-bound and supernatant plasmin (see below). For plasmin release experiments, cells were loaded for 1 hour at 37° C. with 0-5 μg/ml plasmin in serum-free medium, then rinsed three times with MEM.
Plasmin bound to the cell layer was recovered and assayed as follows. […] Plasmin activity was assayed in eluate samples (50 μl) as above with an incubation time of 3 hours at 37° C.

plasmin [2] = biological target: T1, plasmin (Homo sapiens, UniProt P00747); assay: Plasmin thioesterase assay (Z-lysine thiobenzyl ester); type: biochemical; details: tranexamic acid 1 mM
plasmin [3] = biological target: T1, plasmin; assay: Plasmin-catalysed activation of pro-u-PA in solution; type: biochemical; details: tranexamic acid 100 μM; unpublished results
HT-1080 cells [4] = assay: Pro-u-PA index of cell-bound u-PA on HT-1080 cells in serum medium; type: cell-based, human; details: TA 100 μM with Plg 40 μg/ml and anti-PAI-1 antibody 10 μg/ml, 2 h at 37° C.
Description: Cell culture supernatants were assayed for pro-u-PA and active u-PA by the following modification of an immunocapture method (Stephens et al., 1988; Stephens et al., 1987). Microtitre wells of polystyrene immunoplates (type 269620, A/S Nunc, Roskilde, Denmark) were coated overnight at 37° C. with 50 μl of a solution of goat IgG antibodies to human u-PA (cat. # 398, American Diagnostica). The coating solution contained 2.5 μg of IgG per ml of 0.1 M sodium carbonate (pH 9.8). After rinsing, the wells were treated with conditioned medium ([…]) for 2 hours at 23° C., then rinsed again. […] This mixture was incubated for 30 minutes at 37° C., and the absorbancies of the wells were read at 405 nm. […]
Pro-u-PA and active u-PA bound to the cell layer were recovered for immunocapture assays by the same method as was used in the metabolic labelling (see above). […] For conditioned medium and cell-bound u-PA, the u-PA activity assayed after NPGB treatment was expressed as a percentage of the total activity obtained without NPGB treatment, and this percentage used as an index of pro-u-PA content (pro-u-PA index). […]

HT-1080 cells [5] = assay: Formation of bound plasmin on HT-1080 cells in serum culture; type: cell-based, human; details: for Bound plasmin activity (%): 10% serum medium, Plg alone = 100%
HT-1080 cells [6] = assay: u-PA activity in medium of HT-1080 cultures (immunocapture assay); type: cell-based; details: Homo sapiens, control = 100%; for activity at 10 µM: TA 10 μM with Plg 40 μg/ml; for activity at 100 µM: TA 100 μM with Plg 40 μg/ml
Description: S. et al., "Enzyme-linked immunosorbent assay for human urokinase-type plasminogen activators and its proenzyme using a combination of monoclonal and polyclonal antibodies", J. […] S. et al., "Monoclonal antibodies to human 54,000 molecular weight plasminogen activator inhibitor from fibrosarcoma cells--inhibitor neutralization and one-step affinity purification", Thromb. […] The coating solution contained 2.5 μg of IgG per ml of 0.1 M sodium carbonate (pH 9.8). After rinsing, the wells were treated with conditioned medium ([…]) for 2 hours at 23° C., then rinsed again. […] The other half (controls) received 50 μl of rinsing buffer (0.05% Tween 20 in PBS). […] The cultures were incubated for the times shown before assay of cell-bound plasmin.

T1 sequence (P00747 581-810 limits assumed): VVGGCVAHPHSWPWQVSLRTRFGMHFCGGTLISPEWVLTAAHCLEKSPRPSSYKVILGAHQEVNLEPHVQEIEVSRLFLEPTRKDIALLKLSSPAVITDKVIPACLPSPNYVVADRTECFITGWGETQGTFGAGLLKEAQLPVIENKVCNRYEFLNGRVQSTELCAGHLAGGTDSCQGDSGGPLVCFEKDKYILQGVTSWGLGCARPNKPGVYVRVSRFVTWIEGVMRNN
T1 sequence (P00747 97-580 limits assumed): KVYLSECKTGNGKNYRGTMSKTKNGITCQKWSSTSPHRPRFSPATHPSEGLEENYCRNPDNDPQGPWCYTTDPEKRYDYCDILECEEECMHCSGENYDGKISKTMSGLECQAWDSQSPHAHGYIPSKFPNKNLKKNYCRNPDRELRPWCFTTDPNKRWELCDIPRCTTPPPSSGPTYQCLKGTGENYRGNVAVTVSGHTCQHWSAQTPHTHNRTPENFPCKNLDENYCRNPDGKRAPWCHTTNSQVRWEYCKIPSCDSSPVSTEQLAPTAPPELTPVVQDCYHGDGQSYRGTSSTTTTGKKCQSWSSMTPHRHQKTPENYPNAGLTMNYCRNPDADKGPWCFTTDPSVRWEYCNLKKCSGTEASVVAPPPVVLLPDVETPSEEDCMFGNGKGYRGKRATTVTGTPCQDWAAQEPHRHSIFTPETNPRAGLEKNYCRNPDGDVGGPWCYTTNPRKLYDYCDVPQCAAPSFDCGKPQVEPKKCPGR

Row | SMILES | Ability of the u-PA:PAI-1 complex to bind to the U937 cells (U937 cells) | Plasmin activity recovered from plasmin-loaded cells (HT-1080 cells [1]; 1 mM tranexamic acid in 10% serum medium, 2 h at 37° C.) | Binding of plasmin to the cells (HT-1080 cells [1]; tranexamic acid 100 μM) | Effect on the thioesterase activity of plasmin (plasmin [2]) | Ability of plasmin to activate pro-u-PA in solution (plasmin [3]) | Pro-u-PA index (%) (HT-1080 cells [4]) | Bound plasmin activity (%) (HT-1080 cells [5]; TA 10 μM with Plg 40 μg/ml, 3 h) | Bound plasmin activity (%) (HT-1080 cells [5]; TA 10 μM with Plg 40 μg/ml, 17 h) | Bound plasmin activity (HT-1080 cells [5]; TA 100 μM with Plg 40 μg/ml and anti-PAI-1 antibody 10 μg/ml, 2 h at 37° C.) | Bound plasmin activity (%) (HT-1080 cells [5]; TA 100 μM with Plg 40 μg/ml, 3 h) | Bound plasmin activity (%) (HT-1080 cells [5]; TA 100 μM with Plg 40 μg/ml, 17 h) | activity at 10 µM (HT-1080 cells [6]; 3 h) | activity at 10 µM (HT-1080 cells [6]; 17 h) | activity at 100 µM (HT-1080 cells [6]; 3 h) | activity at 100 µM (HT-1080 cells [6]; 17 h)
1 | CCN(CC)CCCC(C)Nc1ccnc2cc(Cl)ccc12 (stereo not drawn) [chloroquine] | does not affect |  |  |  |  |  |  |  |  |  |  |  |  |  | 
2 | NC[C@H]1CC[C@H](C(=O)O)CC1 [tranexamic acid] |  | no plasmin activity could be recovered | completely inhibits | no effect | does not affect | 88% | 9.7% | 34% | 0 ng | 2.2% | 13% | 116% | 87% | 92% | 95%
